Data reported in patent US12509448B2, “Salts of indoleamine 2,3-dioxygenase inhibitors” (INVENTISBIO CO., LTD., priority 2019, dated 2025).
≈ marks a conversion by molar mass, not a printed value. Entries after “also recorded” stand apart in the source; their conditions may differ. Counter-ions that a name gives are not always drawn.

What was measured:
[1] = Solid stability test at 40° C./75% RH (HPLC, XRPD); assay type: physicochemical; settings: for physical and chemical stability (XRPD and HPLC): 40° C./75% RH during testing period (9 days; HCl salt 7 days); for Purity (% Area) Initilal: solid stability test, 0 days
Description: (§1) HPLC ANALYSIS: a representative HPLC method is shown below, which can be used, for example, to analyze the purity, solubility, and stability of the salts herein.
Stability test: About 15 mg of Compound 1 (Form II), and K salt (Form III) were weighed into vials, and put at the condition of 40° C./75% RH for 9 days. At 0 and 9 days, the solid sample was dissolved using methanol/water (1/1) to make a solution with a concentration of 0.2 mg/mL. Sample solutions were analyzed by HPLC and solid samples were examined by XRPD.
About 15 mg of Compound 1 HCl salt (Form I) was weighed into vials, and put at the condition of 40° C./75% RH for 7 days. At 0 and 7 days, the solid sample was dissolved using methanol/water (1/1) to make a solution with the concentration of 0.2 mg/mL. The sample solution was analyzed by HPLC and solid sample was analyzed by XRPD.
K salt and Compound 1 was stored at 40° C./75% RH for 9 days, while HCl salt was stored for 7 days.

[2] = Solubility test in pH 1.2, 6.8 and 7.4 buffers (HPLC, pH of filtrate, XRPD of remaining solid); assay type: physicochemical; settings: for remaining solid by XRPD: pH 1.2 buffer solution; for change of pH of the buffer solutions: HCl salt: pH 6.8 and 7.4 buffer solutions, K salt: buffers; for solubility compared with Compound 1: buffer solutions
Description: as §1
Solubility test: About 15-20 mg of Compound 1 (Form II), K salt (Form III) and HCl salt (Form I) were weighed into vials, and then added 1.5 mL of pH 1.2, pH 6.8 or pH 7.4 buffer to make saturated solutions.
All suspensions were kept shaking with 200 rpm at room temperature for up to 24 hours. At 30 min and 24 hours, the sample solution was filtered and analyzed by HPLC to determine the solubility. The pH of filtrates was also measured. At 24 hours, remaining solids were collected and determined by XRPD.
First, the solubility of Compound 1, HCl salt and K salt was tested in pH 1.2, 6.8 and 7.4 buffer solutions at 25° C. for 30 min and 24 hours. The solubility data and pH value of filtrate were listed in Table 6 and Table 7, respectively.
Additional solubility of Compound 1 and the HCl salt was tested in pH 6.8 and 7.4 for 30 min and 2 hours.

[3] = Dynamic moisture sorption analysis (DVS); assay type: physicochemical; settings: for moisture adsorbed in DVS test: at 80% RH
Description: Dynamic moisture sorption analysis (DVS): DVS was determined using IGAsorp (Hiden Isochema, UK). The sample was tested at a targeted RH of 10 to 90% full cycle in step mode. The analysis was performed in 10% RH increments.

human hepatocyte = settings: compared to INCB-24360 and others of WO2014150677 and WO2014150646; cited from earlier work
[4] = Physical stability of Form I under heat and high humidity (XRPD); assay type: physicochemical; settings: for crystalline form by XRPD after storage at high humidity: 25° C./92.5% RH for 10 days; for crystalline form by XRPD after storage under heat: 60° C. for 10 days
Description: Samples of HCl salt Form I was put into the condition of 92.5% RH or 60° C. for 10 days. Then the sample was analyzed by XRPD. […] XRPD patterns were shown in FIG. 1C (92.5% RH for 10 days) and FIG. 1D (60° C. for 10 days).

[5] = Grinding of Form I (XRPD); assay type: physicochemical; settings: grinded for 2 min and 5 min
Description: Form I of the HCl salt was grinded for 2 min and 5 min.

[6] = Stability of HCl salt Form I in water and in solvent; assay type: physicochemical
[7] = additional test (Table 8), pH 6.8 buffer
[8] = additional test (Table 8), pH 6.8 buffer, 2 hours
[9] = additional test (Table 8), pH 7.4 buffer
[10] = additional test (Table 8), pH 7.4 buffer, 2 hours
[11] = pH 1.2 buffer, 24 hours, 25° C.
[12] = pH 6.8 buffer, 24 hours, 25° C.
[13] = pH 7.4 buffer, 24 hours, 25° C.

Row | physical and chemical stability (XRPD and HPLC) [1] | Purity (% Area) Initilal [1] | Purity (% Area) 9 days ([1]; solid, 40° C./75% RH) | Solubility (mg/mL) 30 min [2, 7] | Solubility (mg/mL) 2 hours [2, 8] | Solubility (mg/mL) 30 min [2, 9] | Solubility (mg/mL) 2 hours [2, 10] | remaining solid by XRPD ([2]; 24 hours) | pH value of filtrate 30 min ([2]; pH 1.2 buffer) | Solubility (mg/mL) 30 min ([2]; pH 1.2 buffer, 25° C.) | pH value of filtrate 24 hours ([2]; pH 1.2 buffer, 24 hours) | pH value of filtrate 30 min ([2]; pH 6.8 buffer) | Solubility (mg/mL) 30 min ([2]; pH 6.8 buffer, 25° C.) | pH value of filtrate 24 hours ([2]; pH 6.8 buffer, 24 hours) | Solubility (mg/mL) 24 hours [2, 12] | pH value of filtrate 30 min ([2]; pH 7.4 buffer) | Solubility (mg/mL) 30 min ([2]; pH 7.4 buffer, 25° C.) | pH value of filtrate 24 hours ([2]; pH 7.4 buffer, 24 hours) | Solubility (mg/mL) 24 hours [2, 13] | XRPD pattern after DVS test [3] | Compound | further results
1 | physically and chemically stable | 99.53 % Area | 99.53 % Area | 0.11 mg/mL (≈ 256 µM) | 0.12 mg/mL (≈ 279 µM) | 0.39 mg/mL (≈ 907 µM) | 0.44 mg/mL (≈ 1020 µM) | changed into HCl salt | 1.11 | 0.49 mg/mL (≈ 1140 µM) | 1.16 | 6.87 | 0.13 mg/mL (≈ 302 µM) | 6.81 | 0.04 mg/mL (≈ 93 µM) | 7.39 | 0.44 mg/mL (≈ 1020 µM) | 7.38 | 0.50 mg/mL (≈ 1160 µM) | not changed | CCN(c1ncc(C2(C(=O)O)CCC2)cc1Nc1ccc(Cl)cc1)C1CCOCC1 [Compound 1, 1-(5-((4-chlorophenyl)amino)-6-(ethyl(tetrahydro-2H-pyran-4-yl)amino)pyridin-3-yl)cyclobutane-1-carboxylic acid] | Solubility (mg/mL) 24 hours [2, 11]: 0.51 mg/mL (≈ 1190 µM); XRPD pattern after DVS test ([3]; listed as Form II): remained unchanged; moisture adsorbed in DVS test [3]: about 0.37%; human hepatocyte clearance compared to other IDO inhibitors (human hepatocyte): better human hepatocyte clearance
2 | physically and chemically stable | 99.80 % Area | 99.79 % Area | – | – | – | – | changed into HCl salt | 1.18 | 9.52 mg/mL | 1.23 | 6.84 | 2.55 mg/mL | 7.46 | 0.55 mg/mL | 7.62 | 6.38 mg/mL | 8.02 | 2.25 mg/mL | – | CCN(c1ncc(C2(C(=O)O)CCC2)cc1Nc1ccc(Cl)cc1)C1CCOCC1 [K salt] | change of pH of the buffer solutions [2]: increased; solubility compared with Compound 1 [2]: much higher; also recorded: higher solubility than Compound 1; solubility compared with Compound 1 ([2]; listed as potassium salt): more soluble than Compound 1; Solubility (mg/mL) 24 hours [2, 11]: 0.71 mg/mL; XRPD pattern after DVS test ([3]; listed as potassium salt): not changed; moisture adsorbed in DVS test ([3]; listed as potassium salt): 1.32%
3 | – | – | – | – | – | – | – | – | – | – | – | – | – | – | – | – | – | – | – | changed | CCN(c1ncc(C2(C(=O)O)CCC2)cc1Nc1ccc(Cl)cc1)C1CCOCC1 [Na salt] | XRPD pattern after DVS test ([3]; listed as Form IV): changed into a different form; moisture adsorbed in DVS test [3]: 30.84%; moisture adsorbed in DVS test ([3]; listed as sodium salt): about 30%
4 | physically and chemically stable | 99.81 % Area | – | 1.62 mg/mL | 0.95 mg/mL | 3.41 mg/mL | 3.53 mg/mL | – | 1.10 | 0.58 mg/mL | 1.17 | 6.59 | 1.45 mg/mL | 3.34 | 0.02 mg/mL | 7.02 | 3.66 mg/mL | 6.06 | 0.49 mg/mL | not changed | CCN(c1ncc(C2(C(=O)O)CCC2)cc1Nc1ccc(Cl)cc1)C1CCOCC1 [HCl salt] | Purity (% Area) 7 days ([1]; solid, 40° C./75% RH, 7 days): 99.78 % Area; crystalline form by XRPD after storage at high humidity [4]: unchanged; crystalline form by XRPD after storage at high humidity ([4]; listed as Form I): remained unchanged; crystalline form by XRPD after storage under heat [4]: unchanged; crystalline form by XRPD after storage under heat ([4]; listed as Form I): remained unchanged; crystalline form by XRPD after grinding [5]: still Form I; change of pH of the buffer solutions [2]: obviously decreased; solubility compared with Compound 1 [2]: higher solubility than Compound 1; also recorded: more soluble than Compound 1; solubility at 24 h ([2]; pH 1.2 buffer, 25 °C, pH 1.2, simulated gastric fluid, thermodynamic from solid, pH 1.2 buffer, 24 hours, 25° C., read-out: Solubility (mg/mL) 24 hours): 0.65 mg/mL; change of solubility with time ([2]; pH 6.8 and 7.4 buffers at 24 hours): obviously decreased; solid by XRPD ([2]; pH 6.8 and 7.4 buffers, 2 hours): part of HCl salt had been changed to be Compound 1; change of solubility with time ([2]; pH 6.8 buffer at 2 hours): decreased; change of solubility with time ([2]; pH 7.4 buffer, 2 hours versus 30 min): almost constant; degradation in solvent ([6]; in THE at 60° C.): can be degraded; dissociation in water ([6]; in water): can dissociate to Compound 1; XRPD pattern after DVS test ([3]; listed as Form I): remained unchanged
